From PubChem BioAssay (NCI)
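Cells were grown in 96-well plates and exposed to each compound for 48 hours at five concentrations; endpoints were interpolated linearly between bracketing concentrations, or set to the highest concentration if not reached. GI50: concentration for 50% inhibition of growth. At the TGI there is no net growth.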

Key:
Assay in all cases: NCI-60 cell line screen, 48 h
[1] = test system: SF-295 CNS
[2] = test system: U251 CNS
[3] = test system: HOP-92 NSCLC
[4] = test system: KM12 colon
[5] = test system: OVCAR-8 ovarian
[6] = test system: UACC-257 melanoma
[7] = test system: SK-OV-3 ovarian
[8] = test system: HCT-15 colon
[9] = test system: K-562 leukemia
[10] = test system: CCRF-CEM leukemia

Compound	GI50 [1] [µM]	TGI [1] [µM]	GI50 [2] [µM]	TGI [2] [µM]	GI50 [3] [µM]	TGI [3] [µM]	GI50 [4] [µM]	TGI [4] [µM]	GI50 [5] [µM]	TGI [5] [µM]	GI50 [6] [µM]	TGI [6] [µM]	GI50 [7] [µM]	TGI [7] [µM]	GI50 [8] [µM]	TGI [8] [µM]	TGI [9] [µM]	TGI [10] [µM]	GI50 [10] [µM]	GI50 [9] [µM]
CCCCCCN(CCCCCC)CC(O)c1ccc2c3c(cccc13)CC2 (configuration not stated)	1.17	12	7.44	22.4	2.16	9.27	5.3	18.9	13.1	29.4	6.97	22.6	14.1	27.6	6.63	25.1	–	–	–	–
Cc1cc(=O)oc2cc(O)c(CN(C)CC(=O)O)cc12	–	–	–	> 100	–	> 100	–	> 100	–	> 100	–	> 100	–	–	–	> 100	> 100	–	–	–
S=c1nc(-c2cccnc2)[nH][nH]1	–	> 100	–	> 100	–	> 100	–	> 100	–	–	–	> 100	–	> 100	–	> 100	–	> 100	–	–
CC(=O)O[C@@H]1C2C(=O)OC(=O)C2C2CCC[C@]23O[C@H]13 (some centres not stated)	–	–	–	> 100	–	–	–	> 100	–	> 100	–	> 100	–	> 100	–	> 100	> 100	> 100	–	–
CN1C(=O)C(Cl)(C(Cl)(Cl)S(=O)(=O)O)C(=O)c2ccccc21 (configuration not stated)	–	> 100	–	> 100	–	> 100	–	> 100	–	> 100	–	> 100	–	> 100	–	–	> 100	> 100	–	–
COc1ccc(/C=C2\C(=O)N(C(=O)Cc3ccccc3)N=C2C)cc1OC	–	> 100	–	–	–	–	–	> 100	–	> 100	–	> 100	–	–	–	> 100	> 100	> 100	–	–
CCN(CC)c1ccc2c(c1)Nc1cc(=C(C#N)C#N)c3ccccc3c1=N2	–	> 100	–	> 100	–	> 100	–	> 100	–	> 100	–	> 100	–	> 100	–	–	> 100	–	–	–
NC(=O)c1ccc(C2C3=C(CCCC3=O)OC3=C2C(=O)c2ccccc2C3=O)cc1 (configuration not stated)	1.53	3.18	0.358	1.22	0.855	2.91	1.34	4.52	–	–	0.232	1.26	2.12	4.11	1.4	3.37	1.96	2.21	0.35	0.391
C[N+]1(C)C/C(=C\c2ccncc2)C(=O)/C(=C/c2ccncc2)C1	–	> 100	–	> 100	–	> 100	–	> 100	–	> 100	–	> 100	–	> 100	–	> 100	–	> 100	–	–
O=C([CH-]C(=O)C(F)(F)F)c1ccccc1.O=C([CH-]C(=O)C(F)(F)F)c1ccccc1.O=C([CH-]C(=O)C(F)(F)F)c1ccccc1.O=C([CH-]C(=O)C(F)(F)F)c1ccccc1.[Eu+3].c1ccncc1	3.02	31	5.02	> 100	9.02	45.6	3.08	8.11	6.58	> 100	11.9	55.2	–	–	4.98	> 100	83	32.7	2.64	4.66
C[C-](O)O.O/C(=C\[C-](O)c1ccccc1)c1ccccc1.O/C(=C\[C-](O)c1ccccc1)c1ccccc1.[Nd+3] (configuration not stated)	0.372	19.4	4.46	22.1	12.9	35.3	–	–	4.48	55	15.5	42.3	16.8	64.7	4.96	20.1	16.4	15.3	2.21	3.78
Oc1ccccc1-c1nc2c3ccccc3c3ccccc3c2[nH]1	10.4	22.2	10.5	22.2	1.55	6.48	4.32	14.1	12.1	24.5	14.1	27.1	8.68	23.7	5.31	17.9	–	16.8	4.6	–
CCC(c1cccc(O)c1)C(CC)c1cccc(O)c1 (configuration not stated)	3.99	19.7	3.63	14.7	–	–	3.03	13.6	12.8	35.2	11.5	26.4	2.76	11.1	3.52	14.8	–	–	–	–
Cc1ccc2c(c1)C(c1cccc3ccccc13)OC2=O (configuration not stated)	–	> 100	–	> 100	–	–	–	> 100	–	> 100	–	> 100	–	> 100	–	> 100	> 100	> 100	–	–
O=C1C2Cc3ccccc3CN2C(=O)N1CCN1CCCC1 (configuration not stated)	–	> 100	–	> 100	–	–	–	> 100	–	> 100	–	–	–	–	–	> 100	> 100	> 100	–	–
Cc1c2cc[n+](C)cc2c(C)c2c1[nH]c1ccc(O)c(OCC(F)(F)F)c12	–	3.76	–	7	–	17.4	–	–	–	25.5	–	18.9	–	17.2	–	–	17	28.4	–	–
Cc1c(Cl)cccc1NC(=O)CC1C(=O)Nc2ccccc2S1(=O)=O (configuration not stated)	–	36.5	–	26.5	–	31.7	–	–	–	34.5	–	77.8	–	–	–	25.7	50.1	47.8	–	–
CCOC(=O)[C@H]1Nc2ccc(OC)cc2C2c3ccccc3CC21 (some centres not stated)	–	> 100	–	> 100	–	–	–	> 100	–	> 100	–	> 100	–	–	–	> 100	> 100	–	–	–
C1=CC=C2NCCOCCNC3=CC=CC=CC3=NCCOCCN=C2C=C1	–	> 100	–	> 100	–	–	–	> 100	–	> 100	–	44.6	–	> 100	–	> 100	> 100	> 100	–	–
N.N.N.N.N.N.O=N[O-].[Br-].[Co+3].[Co+3].[OH3+].[OH3+]	> 100	> 100	–	–	> 100	> 100	> 100	> 100	–	–	> 100	> 100	> 100	> 100	> 100	> 100	> 100	> 100	> 100	> 100
